Reference: ChEMBL document CHEMBL3885861, “Open TG-GATES”

Organism: Rattus norvegicus
Assay: Open TG-GATES - Regimen: Daily Repeat
Type: toxicity, organism-based, Sprague-Dawley
Parameters: regimen Daily Repeat, gender Male, age 6 weeks
Conditions: in vivo, iv, route intravenous injection; for APTT / Bas / Eos / Fbg / Ht / Lym / MCH / MCHC / MCV / Mono / Neu / PT / Plat / RBC / Ret / WBC / Hb: tissue Blood; for KIDNEY_L / KIDNEY_R / KIDNEY_TOTAL: tissue Kidney; for LIVER: tissue Liver
[1] = 0 mg/kg, 72 h, dose level Control, time 3 day
[2] = 0 mg/kg, 72 h, tissue Plasma, dose level Control, time 3 day
[3] = 0 mg/kg, […], dose level Control, time 7 day
[4] = 0 mg/kg, […], dose level Control, time 14 day
[5] = 0 mg/kg, […], dose level Control, time 28 day
[6] = 0 mg/kg, […], tissue Plasma, dose level Control, time 7 day
[7] = 0 mg/kg, […], tissue Plasma, dose level Control, time 14 day
[8] = 0 mg/kg, […], tissue Plasma, dose level Control, time 28 day
[9] = 10 mg/kg, 72 h, dose level Low, time 3 day
[10] = 10 mg/kg, 72 h, tissue Plasma, dose level Low, time 3 day
[11] = 10 mg/kg, […], dose level Low, time 7 day
[12] = 10 mg/kg, […], dose level Low, time 14 day
[13] = 10 mg/kg, […], dose level Low, time 28 day
[14] = 10 mg/kg, […], tissue Plasma, dose level Low, time 7 day
[15] = 10 mg/kg, […], tissue Plasma, dose level Low, time 14 day
[16] = 10 mg/kg, […], tissue Plasma, dose level Low, time 28 day

Sequence: GENTAMICIN
- TERMINAL_BW [1]: 231.1 g
- APTT [1]: 23.2 s
- Bas [1]: 0%
- Eos [1]: 1%
- Fbg [1]: 286.6 mg/dL
- Ht [1]: 37.6%
- Lym [1]: 72.8%
- MCH [1]: 21.1 pg
- MCHC [1]: 34.9%
- MCV [1]: 60.6 fL
- Mono [1]: 3.2%
- Neu [1]: 21.6%
- PT [1]: 16.9 s
- Plat [1]: 119.1 x10_4/uL
- RBC [1]: 621 x10_4/ul
- Ret [1]: 5.8%
- WBC [1]: 105.4 x10_2/uL
- KIDNEY_L [1]: 1.1 g
- KIDNEY_R [1]: 1 g
- KIDNEY_TOTAL [1]: 2.1 g
- ALP [2]: 1838 IU/L
- ALT [2]: 41.8 IU/L
- AST [2]: 70.2 IU/L
- BUN [2]: 16.2 mg/dL
- CRE [2]: 0.2 mg/dL
- DBIL [2]: 0 mg/dL
- IP [2]: 6.9 mg/dL
- K [2]: 4.5 meq/L
- LDH [2]: 157.2 IU/L
- Na [2]: 139.6 meq/L
- PL [2]: 147.8 mg/dL
- RALB [2]: 3 g/dL
- TBIL [2]: 0.006 mg/dL
- TC [2]: 72.8 mg/dL
- TG [2]: 107.6 mg/dL
- TP [2]: 5.5 g/dL
- gamma-GTP [2]: 1.6 IU/L
- TERMINAL_BW [3]: 261.2 g
- TERMINAL_BW [4]: 307.6 g
- TERMINAL_BW [5]: 392.7 g
- APTT [3]: 22.1 s
- Bas [3]: 0%
- Eos [3]: 0.8%
- Fbg [3]: 273.2 mg/dL
- Ht [3]: 37.1%
- Lym [3]: 80%
- MCH [3]: 20.6 pg
- MCV [3]: 58.5 fL
- Mono [3]: 3%
- Neu [3]: 15.5%
- PT [3]: 16 s
- Plat [3]: 118.1 x10_4/uL
- RBC [3]: 636.2 x10_4/ul
- Ret [3]: 4.1%
- WBC [3]: 124.9 x10_2/uL
- APTT [4]: 23 s
- Bas [4]: 0%
- Eos [4]: 0.8%
- Fbg [4]: 267.8 mg/dL
- Ht [4]: 40.2%
- Lym [4]: 78%
- MCH [4]: 21 pg
- MCHC [4]: 35.7%
- MCV [4]: 58.8 fL
- Mono [4]: 2.6%
- Neu [4]: 17.6%
- PT [4]: 16.2 s
- Plat [4]: 123.5 x10_4/uL
- RBC [4]: 684.8 x10_4/ul
- Ret [4]: 4%
- WBC [4]: 103.9 x10_2/uL
- APTT [5]: 24.6 s
- Bas [5]: 0%
- Eos [5]: 1.2%
- Fbg [5]: 290.2 mg/dL
- Hb [5]: 15.4 g/dL
- Ht [5]: 43.3%
- Lym [5]: 83%
- MCHC [5]: 35.5%
- MCV [5]: 57.6 fL
- Mono [5]: 2%
- Plat [5]: 102.2 x10_4/uL
- RBC [5]: 752 x10_4/ul
- Ret [5]: 2.3%
- WBC [5]: 107.5 x10_2/uL
- KIDNEY_L [3]: 1.1 g
- KIDNEY_R [3]: 1.1 g
- KIDNEY_TOTAL [3]: 2.2 g
- KIDNEY_L [4]: 1.2 g
- KIDNEY_R [4]: 1.2 g
- KIDNEY_TOTAL [4]: 2.4 g
- KIDNEY_L [5]: 1.4 g
- KIDNEY_R [5]: 1.3 g
- KIDNEY_TOTAL [5]: 2.7 g
- LIVER [5]: 15.2 g
- ALP [6]: 1702.5 IU/L
- ALT [6]: 40.5 IU/L
- AST [6]: 72.2 IU/L
- BUN [6]: 17 mg/dL
- CRE [6]: 0.2 mg/dL
- DBIL [6]: 0 mg/dL
- GLC [6]: 214 mg/dL
- IP [6]: 6.8 mg/dL
- K [6]: 4.4 meq/L
- LDH [6]: 207.2 IU/L
- PL [6]: 135.2 mg/dL
- RALB [6]: 2.9 g/dL
- TBIL [6]: 0.005 mg/dL
- TC [6]: 68.5 mg/dL
- TG [6]: 94.5 mg/dL
- TP [6]: 5.4 g/dL
- gamma-GTP [6]: 1.5 IU/L
- ALP [7]: 1249.2 IU/L
- ALT [7]: 33.4 IU/L
- AST [7]: 61.6 IU/L
- CRE [7]: 0.2 mg/dL
- DBIL [7]: 0 mg/dL
- GLC [7]: 198.6 mg/dL
- IP [7]: 7 mg/dL
- K [7]: 4.7 meq/L
- PL [7]: 140.8 mg/dL
- RALB [7]: 3 g/dL
- TBIL [7]: 0.002 mg/dL
- TC [7]: 63.2 mg/dL
- TG [7]: 154 mg/dL
- TP [7]: 5.6 g/dL
- gamma-GTP [7]: 2 IU/L
- ALP [8]: 976 IU/L
- ALT [8]: 34.8 IU/L
- AST [8]: 58.8 IU/L
- BUN [8]: 18.2 mg/dL
- CRE [8]: 0.2 mg/dL
- DBIL [8]: 0 mg/dL
- GLC [8]: 190.8 mg/dL
- IP [8]: 6.5 mg/dL
- K [8]: 4.1 meq/L
- LDH [8]: 115.4 IU/L
- PL [8]: 135.6 mg/dL
- RALB [8]: 3 g/dL
- TBIL [8]: 0.004 mg/dL
- TG [8]: 101 mg/dL
- TP [8]: 6 g/dL
- gamma-GTP [8]: 2.4 IU/L
- TERMINAL_BW [9]: 228.4 g
- Bas [9]: 0%
- Eos [9]: 0.8%
- Fbg [9]: 300.8 mg/dL
- Ht [9]: 38.3%
- Lym [9]: 71.8%
- MCHC [9]: 34.8%
- MCV [9]: 59.9 fL
- Mono [9]: 3.8%
- Neu [9]: 22%
- PT [9]: 17 s
- Plat [9]: 124.4 x10_4/uL
- RBC [9]: 640 x10_4/ul
- Ret [9]: 5.2%
- WBC [9]: 102 x10_2/uL
- KIDNEY_L [9]: 1 g
- KIDNEY_R [9]: 1 g
- KIDNEY_TOTAL [9]: 2 g
- LIVER [9]: 10.2 g
- AST [10]: 71.8 IU/L
- BUN [10]: 18.2 mg/dL
- CRE [10]: 0.2 mg/dL
- DBIL [10]: 0 mg/dL
- GLC [10]: 174.6 mg/dL
- IP [10]: 6.6 mg/dL
- K [10]: 4.5 meq/L
- LDH [10]: 157.2 IU/L
- PL [10]: 131.2 mg/dL
- RALB [10]: 3 g/dL
- TBIL [10]: 0.012 mg/dL
- TC [10]: 66.4 mg/dL
- TG [10]: 84.6 mg/dL
- TP [10]: 5.5 g/dL
- gamma-GTP [10]: 1.4 IU/L
- TERMINAL_BW [11]: 260.4 g
- TERMINAL_BW [12]: 320 g
- TERMINAL_BW [13]: 376.9 g
- APTT [11]: 22.1 s
- Bas [11]: 0%
- Eos [11]: 1.4%
- Fbg [11]: 290 mg/dL
- Hb [11]: 13.7 g/dL
- Ht [11]: 40%
- Lym [11]: 75.8%
- MCHC [11]: 34.4%
- MCV [11]: 60.6 fL
- Mono [11]: 2.6%
- Plat [11]: 122 x10_4/uL
- RBC [11]: 660.6 x10_4/ul
- Ret [11]: 4.7%
- WBC [11]: 106.3 x10_2/uL
- APTT [12]: 22.5 s
- Bas [12]: 0%
- Eos [12]: 1%
- Fbg [12]: 298.2 mg/dL
- Hb [12]: 14.1 g/dL
- Ht [12]: 39.7%
- Lym [12]: 75.8%
- MCH [12]: 20.6 pg
- MCHC [12]: 35.5%
- MCV [12]: 58.2 fL
- Mono [12]: 2.8%
- Neu [12]: 18.8%
- PT [12]: 16.5 s
- Plat [12]: 124.8 x10_4/uL
- RBC [12]: 683 x10_4/ul
- Ret [12]: 4.4%
- WBC [12]: 118.2 x10_2/uL
- APTT [13]: 25.6 s
- Bas [13]: 0%
- Eos [13]: 1.6%
- Fbg [13]: 309.2 mg/dL
- Ht [13]: 43.2%
- MCHC [13]: 36.1%
- MCV [13]: 53.9 fL
- Mono [13]: 2%
- Neu [13]: 16.4%
- PT [13]: 16.5 s
- Plat [13]: 112.8 x10_4/uL
- RBC [13]: 803.4 x10_4/ul
- Ret [13]: 1.9%
- WBC [13]: 114.2 x10_2/uL
- KIDNEY_L [11]: 1 g
- KIDNEY_R [11]: 1 g
- KIDNEY_TOTAL [11]: 2.1 g
- KIDNEY_L [12]: 1.3 g
- KIDNEY_R [12]: 1.3 g
- KIDNEY_TOTAL [12]: 2.6 g
- KIDNEY_L [13]: 1.4 g
- KIDNEY_R [13]: 1.4 g
- KIDNEY_TOTAL [13]: 2.7 g
- LIVER [12]: 13.6 g
- LIVER [13]: 13.7 g
- ALP [14]: 1411.6 IU/L
- ALT [14]: 40.2 IU/L
- AST [14]: 73 IU/L
- BUN [14]: 18.2 mg/dL
- CRE [14]: 0.2 mg/dL
- DBIL [14]: 0 mg/dL
- GLC [14]: 188.6 mg/dL
- IP [14]: 6.5 mg/dL
- K [14]: 4.3 meq/L
- LDH [14]: 203.6 IU/L
- PL [14]: 146.8 mg/dL
- RALB [14]: 3 g/dL
- TBIL [14]: 0.008 mg/dL
- TC [14]: 70.4 mg/dL
- TG [14]: 121.8 mg/dL
- TP [14]: 5.5 g/dL
- gamma-GTP [14]: 1.2 IU/L
- ALP [15]: 1519.6 IU/L
- ALT [15]: 37 IU/L
- AST [15]: 65.4 IU/L
- CRE [15]: 0.2 mg/dL
- DBIL [15]: 0 mg/dL
- GLC [15]: 186.6 mg/dL
- IP [15]: 6.3 mg/dL
- K [15]: 4.4 meq/L
- LDH [15]: 131.2 IU/L
- RALB [15]: 3.1 g/dL
- TBIL [15]: 0.006 mg/dL
- TC [15]: 61.8 mg/dL
- TG [15]: 152 mg/dL
- TP [15]: 5.8 g/dL
- gamma-GTP [15]: 1.8 IU/L
- AST [16]: 66 IU/L
- CRE [16]: 0.2 mg/dL
- DBIL [16]: 0 mg/dL
- GLC [16]: 176 mg/dL
- IP [16]: 5.8 mg/dL
- K [16]: 4.1 meq/L
- LDH [16]: 137.2 IU/L
- PL [16]: 132 mg/dL
- RALB [16]: 3.1 g/dL
- TBIL [16]: 0.004 mg/dL
- TC [16]: 67.4 mg/dL
- TG [16]: 113.6 mg/dL
- TP [16]: 6.1 g/dL
